Publication PMC10177380 (Cancers, 2023)
Several values for one entry are separate records, joined by “and”; a condition that tells them apart may be missing. Equal values may be shown once. Read-outs that look alike come from different tables or passages of the source.

Assays:
[1] = tested on: ADDP ovarian variant (cisplatin-resistant A2780 clone); test: MTT growth inhibition, 72 h, ADDP; format: cell-based; settings: ADDP, MTT, 72 h
[2] = tested on: non-tumour derived MCF10A breast line; test: MTT growth inhibition, 72 h, MCF10A; format: cell-based
[3] = tested on: SJG2 glioblastoma; test: MTT growth inhibition, 72 h, SJG2; format: cell-based
[4] = tested on: HT29 colon cells; test: ROS production, DCFDA/H2DCFDA cellular ROS assay; format: cell-based, human; settings: treatment at GI50 concentration (TBHP positive control 20 μM)
Experimental: To determine the presence of ROS in treated cells, a DCFDA/H2DCFDA-cellular ROS Assay Kit (Abcam, Cambridge, MA, USA) was utilised, as previously reported. The ROS potential of platinum(II) precursors and platinum(IV) scaffolds, which were determined using the same method, were also presented in this study for comparison.
Additionally, the ROS potential of the platinum(II) precursors and platinum(IV) scaffolds was determined previously and was presented here to allow for comparison (Table 10 and Figure 13). […] Treatment with the complexes and ligands was completed at each specific GI50 concentration. […]
dimethylthiazol-2-yl]-2,5-diphenyltetrazolium bromide) assay and absorbance was read at 540 nm. An eight-point dose response curve was produced from which the GI50 value was calculated, representing the drug concentration at which cell growth was inhibited by 50% based on the difference between the optical density values on day 0 and those at the end of drug exposure.
4. Reactive Oxygen Species (ROS) Potential
A total of 25,000 cells/mL of HT29 cells in DMEM were seeded in 96-well plates. Cells were washed with 1X kit buffer, and then stained with 25 μM 2’,7’-dichlorofluorescein diacetate (DCFH-DA) and incubated for 45 min. DCFH-DA was then removed, and cells were then re-washed with 1X kit buffer, after which phenol red free media was added.
Cells were then treated with a GI50 drug concentration for each complex. The plates were directly scanned to measure fluorescence (relative fluorescence units (RFU)) at different time points using the Glo-Max®-Multimode microplate reader (Promega Corporation, Alexandra, VIC, Australia) at an excitation/emission of 485/535 nm. […]

[5] = tested on: H460 lung; test: MTT growth inhibition, 72 h, H460; format: cell-based; settings: H460, MTT, 72 h
[6] = tested on: U87 glioblastoma; test: MTT growth inhibition, 72 h, U87; format: cell-based
[7] = tested on: Du145 prostate; test: MTT growth inhibition, 72 h, Du145; format: cell-based; settings: Du145, MTT, 72 h
[8] = tested on: A431 skin; test: MTT growth inhibition, 72 h, A431; format: cell-based
[9] = tested on: A2780 ovarian; test: MTT growth inhibition, 72 h, A2780; format: cell-based
[10] = tested on: multiple cell lines; test: MTT growth inhibition, over all cell lines tested; format: cell-based
[11] = tested on: BE2C neuroblastoma; test: MTT growth inhibition, 72 h, BE2C; format: cell-based; settings: BE2C, MTT, 72 h
[12] = tested on: MCF7 breast; test: MTT growth inhibition, 72 h, MCF7; format: cell-based; settings: MCF7, MTT, 72 h
[13] = tested on: MIA pancreas; test: MTT growth inhibition, 72 h, MIA; format: cell-based
[14] = tested on: U87 glioblastoma; parameters: method as in PMID 36296713, PMID 36142383; settings: cited from earlier work
[15] = Reduction with ascorbic acid (AsA) in PBS followed by 1H-NMR and 1D-195Pt-NMR; format: physicochemical; settings: 37 °C; for Reduction Times T50%: estimated 50% reduction; for Reduction Times T50% / Reduction Times T100%: PBS in D2O; for Reduction Times T100%: estimated 100% reduction; for time of complete reduction to platinum(II) precursor: final 1D-195Pt-NMR at 400 ppm
Experimental: The reduction behaviour of 1–6 was probed via ^1H-NMR and 1D-^195Pt-NMR spectroscopy, as previously described (see Supplementary Materials).
The reduction behaviour of 1–6 was monitored by ^1H-NMR and 1D-^195Pt-NMR spectroscopy using previously established methods. Prior to the reduction measurements, each metal complex was dissolved with PBS in D2O only.
Based on the initial 1D-^195Pt-NMR spectra acquired (Figures S62 and S63), the structural integrity of the complexes was retained, and no signs of reduction were observed, thus also confirming that the PBS had no effect on the complexes. Subsequently, AsA was added in each solution containing the metal complex, PBS and D2O. Then, sequential ^1H-NMR experiments were undertaken for 1 h, followed by final 1D-^195Pt-NMR experiments measured within the regions of 400 and −2800 ppm (Figures S64–S75). The approximate time points for 1–6 at which an estimated 50 and 100% reduction had occurred, in the presence of AsA, as represented by T50% and T100%, are summarised in Table 8.
A sequence of 1H-NMR experiments was carried out for 1 h at 37 °C, followed by 1D-195Pt-NMR within the regions of –2800 and 400 ppm. An amount of 10 mM PBS (~7.4 pH) was transferred to a vial and reduced to dryness through rotary evaporation. AsA (~1 mg) was combined with the metal complex (~5 mg) and transferred to the vial containing the dried PBS. 600 μL of D2O was then added to the vial to dissolve the complex, AsA and the PBS together. Each reaction was followed at 37 °C until the complete reduction […]
The cell lines tested were: HT29 colon, U87 glioblastoma, MCF-7 breast, A2780 ovarian, H460 lung, A431 skin, Du145 prostate, BE2-C neuroblastoma, SJ-G2 glioblastoma, MIA pancreas, ADDP ovarian variant, and the non-tumour derived MCF10A breast line. In […]
agents were prepared in DMSO (30 mM stock solutions) and stored at −20 °C until use.
All cell lines were cultured in a humidified atmosphere 5% carbon dioxide at 37 °C. The cancer cell lines were maintained in Dulbecco’s modified Eagle’s medium (DMEM) (Trace Biosciences, Sydney, NSW, Australia) supplemented with 10% foetal bovine serum, 10 mM sodium bicarbonate penicillin (100 IU mL−1), streptomycin (100 μg mL−1) and glutamine (4 mM). The non-cancer MCF10A cell line was cultured in DMEM:F12 (1:1) cell culture media, 5% heat inactivated horse serum, supplemented with penicillin (50 IU mL−1), streptomycin (50 μg mL−1), 20 mM 4-(2-hydroxyethyl)-1-piperazineethanesulfonic acid (HEPES), L-glutamine (2 mM), epidermal growth factor (20 ng mL−1), hydrocortisone (500 ng mL−1), cholera toxin (100 ng mL−1) and insulin (10 μg mL−1). Cytotoxicity was determined by plating cells in duplicate in […] medium at a density of 2500 – 4000 cells per well in 96 well plates. On day 0 (24 h after plating) when the cells were in logarithmic growth, 100 μL of medium with or without the test agent

[16] = all cell lines, MTT, 72 h, read-out: GI50 values over the cell lines tested
[17] = mean over all cell lines tested, read-out: Mean GI50 Values

Row | SMILES | ROS Production ([4]; HT29, 24 h) | ROS Production ([4]; HT29, 48 h) | ROS Production ([4]; HT29, 72 h) | GI50 [6] | GI50 [10, 17] | GI50 [13] | GI50 [14] | GI50 [1] | GI50 [2] | GI50 [3] | GI50 [5] | GI50 [7] | GI50 [8] | GI50 [9] | GI50 [11] | GI50 [12] | Reduction Times T50% [15] | Reduction Times T100% [15] | further results
1 | COc1ccc2c(c1)c(CC(=O)OCC(=O)O)c(C)n2C(=O)c1ccc(Cl)cc1 [ACE, acemetacin] | 279 ± 7 RFU | 260 ± 9 RFU | 132 ± 13 RFU | > 50000 nM | > 50000 nM | > 50000 nM | – | – | – | – | – | – | – | – | – | – | – | – | GI50 ([1]; Cisplatin-resistant A2780): > 50000 nM; GI50 ([2]; Homo sapiens, MCF-10A): > 50000 nM; GI50 ([3]; SJ-G2): > 50000 nM; GI50 ([5]; Homo sapiens, NCI-H460): > 50000 nM; GI50 ([7]; Homo sapiens, DU-145): > 50000 nM; GI50 ([8]; Homo sapiens, A-431): > 50000 nM; GI50 ([9]; Homo sapiens): > 50000 nM; GI50 [10, 16]: > 50000 nM; GI50 ([11]; Homo sapiens, BE(2)-C): > 50000 nM; GI50 ([12]; Homo sapiens): > 50000 nM
2 | N.N.[Cl][Pt][Cl] [Cisplatin, cis-diamminedichloroplatinum(II)] | 299 ± 25 RFU | 370 ± 22 RFU | 392 ± 21 RFU | – | – | – | 3800 ± 1100 nM | – | – | – | – | – | – | – | – | – | – | – | –
3 | COc1ccc2cc([C@H](C)C(=O)[O][Pt+2]3([OH])[N]4C=CC=c5ccc6c(c54)[N]3C=CC=6)ccc2c1.N[C@H]1CCCC[C@@H]1N [Complex 1, [Pt^IV(phen)(SS-DACH)(NPX)(OH)]^2+] | 235 ± 23 RFU | 215 ± 19 RFU | 63 RFU and 63 ± 7 RFU | 2570 ± 440 nM | 931 ± 139 nM | 660 ± 100 nM | – | 400 ± 19 nM | 450 ± 24 nM | 1570 ± 67 nM | 860 ± 124 nM | 230 ± 17 nM | 1020 ± 390 nM | 420 ± 50 nM | 1470 ± 67 nM | 1120 ± 342 nM | 20 to 25 min | post 60 min | –
4 | COc1ccc2cc([C@H](C)C(=O)[O][Pt+2]3([OH])[N]4C=CC=c5cc(C)c6c(c54)[N]3C=CC=6)ccc2c1.N[C@H]1CCCC[C@@H]1N (stereo partly shown) [Complex 2, [Pt^IV(5-Mephen)(SS-DACH)(NPX)(OH)]^2+] | 290 ± 17 RFU | 261 ± 15 RFU | 84 RFU and 84 ± 9 RFU | 1330 ± 190 nM | 490 ± 75 nM | 370 ± 54 nM | – | 280 ± 27 nM | 310 ± 12 nM | 620 ± 43 nM | 410 ± 37 nM | 130 ± 27 nM | 530 ± 180 nM | 290 ± 56 nM | 680 ± 17 nM | 720 ± 240 nM | 10 to 15 min | post 60 min | time of complete reduction to platinum(II) precursor [15]: ~ 1.5 h
5 | COc1ccc2cc([C@H](C)C(=O)[O][Pt+2]3([OH])[N]4C=CC=c5c(C)c(C)c6c(c54)[N]3C=CC=6)ccc2c1.N[C@H]1CCCC[C@@H]1N [Complex 3, [Pt^IV(5,6-Me2phen)(SS-DACH)(NPX)(OH)]^2+] | 297 ± 21 RFU | 287 ± 11 RFU | 104 RFU and 104 ± 15 RFU | 180 ± 23 nM | 84 ± 12 nM | 47 ± 7 nM | – | 25 ± 2 nM | 36 ± 4 nM | 230 ± 18 nM | 56 ± 5 nM | 10 ± 2 nM | 75 ± 33 nM | 39 ± 9 nM | 220 ± 12 nM | 60 ± 22 nM | 10 to 15 min | post 60 min | time of complete reduction to platinum(II) precursor [15]: ~ 1.5 h
6 | Cc1cc2c3c4c1=CC=C[N]4[Pt+2][N]3C=CC=2.N[C@H]1CCCC[C@@H]1N [Complex 5MESS] | – | – | – | – | – | – | 320 ± 26 nM | – | – | – | – | – | – | – | – | – | – | – | –
7 | Cc1c(C)c2cccnc2c2ncccc12.N[C@H]1CCCC[C@@H]1N.[Pt] [Complex 56MESS, [Pt^II(5,6-Me2phen)(SS-DACH)]^2+] | – | – | – | – | – | – | 35 ± 6.4 nM | – | – | – | – | – | – | – | – | – | – | – | –
8 | COc1ccc2cc([C@H](C)C(=O)O)ccc2c1 [NPX, naproxen] | 187 ± 12 RFU | 178 ± 13 RFU | 15 ± 5 RFU | > 50000 nM | > 50000 nM | > 50000 nM | – | – | – | – | – | – | – | – | – | – | – | – | GI50 ([1]; Cisplatin-resistant A2780): > 50000 nM; GI50 ([2]; Homo sapiens, MCF-10A): > 50000 nM; GI50 ([3]; SJ-G2): > 50000 nM; GI50 ([5]; Homo sapiens, NCI-H460): > 50000 nM; GI50 ([7]; Homo sapiens, DU-145): > 50000 nM; GI50 ([9]; Homo sapiens): > 50000 nM; GI50 [10, 16]: > 50000 nM; GI50 ([11]; Homo sapiens, BE(2)-C): > 50000 nM; GI50 ([12]; Homo sapiens): > 50000 nM
9 | C1=C[N]2[Pt+2][N]3C=CC=c4ccc(c2c43)=C1.N[C@H]1CCCC[C@@H]1N [PHENSS] | – | – | – | – | – | – | 980 ± 270 nM | – | – | – | – | – | – | – | – | – | – | – | –
